According to article PMC5654414, “In vitro and in vivo comparative and competitive activity-based protein profiling of GH29 α-L-fucosidases” (Chemical Science, 2015):

Legend:
[1] = biological target: T1, recombinant human FUCA1 (human lysosomal α-L-fucosidase) (Homo sapiens, UniProt P04066); experiment: In vitro inhibition of FUCA1 activity, 4-methylumbelliferyl-α-L-fucopyranoside substrate, lysates of COS-7 cells over-expressing enzyme; format: biochemical
T1 construct: expressed in transfected cells; host or cells: COS-7
T1 sequence (P04066 32-466): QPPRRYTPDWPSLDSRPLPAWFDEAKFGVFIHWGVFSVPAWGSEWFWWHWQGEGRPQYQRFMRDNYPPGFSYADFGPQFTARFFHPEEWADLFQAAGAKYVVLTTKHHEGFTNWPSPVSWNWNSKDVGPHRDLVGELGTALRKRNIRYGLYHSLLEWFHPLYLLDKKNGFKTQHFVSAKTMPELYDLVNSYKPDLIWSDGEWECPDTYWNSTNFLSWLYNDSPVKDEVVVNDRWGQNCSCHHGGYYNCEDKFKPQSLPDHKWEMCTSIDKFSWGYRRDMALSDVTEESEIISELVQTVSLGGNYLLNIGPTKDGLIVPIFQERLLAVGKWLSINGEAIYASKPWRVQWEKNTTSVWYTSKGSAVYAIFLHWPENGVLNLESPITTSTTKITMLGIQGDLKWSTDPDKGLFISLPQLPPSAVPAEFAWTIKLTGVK
Method: Having the cyclophellitol aziridine inhibitors and probes in hand, we determined their inhibitory potency towards the human lysosomal α-L-fucosidase, FUCA1.
The enzymatic activity of α-L-fucosidase was assayed at 37 °C by incubating with 1.5 mM 4-methylumbelliferyl-α-L-fucopyranoside as substrate in 150 mM McIlvaine buffer, pH 4.5, supplemented with 0.1% (w/v) BSA. […] The reaction was quenched by adding excess NaOH–glycine (pH 10.6), after which fluorescence was measured with a fluorimeter LS55 (Perkin Elmer) using λEX 366 nm and λEM 445 nm.

[2] = tested on: purified α-L-fucosidase from Bacteroides thetaiotaomicron; experiment: In vitro ABP labeling of purified bacterial α-L-fucosidase; format: binding
Method: All pre-incubations and ABP labeling-reactions occurred for 30 min at 37 °C. Total lysates (50 μg), medium (500 μg) or purified protein preparations (5 μg) were labeled with 1 μM JJB256 1 or JJB244 2, dissolved in 150 mM McIlvaine buffer, pH 4.5, incubating for 30 min at 37 °C. For ABPP, protein preparations were pre-incubated with compounds 4 (100 μM), 6 (100 μM), 7–13 (1 or 5 mM, specified in the main text) prior to the addition of 100 nM fluorescent ABPs. Influence of pH on ABP labeling involved pre-incubation at pH 3–10 prior to addition of 100 nM ABP 1. Direct labeling of retaining β-glucosidases occurred at pH 5.0 in conjunction with 100 nM ABP JJB75. Samples were then denatured with 5× Laemmli buffer (50% (v/v) 1 M Tris–HCl, pH 6.8, 50% (v/v) 100% glycerol, 10% (w/v) DTT, 10% (w/v) SDS, 0.01% (w/v) bromophenol blue), boiled for 4 min at 100 °C, and separated by gel electrophoresis on 10% (w/v) SDS-PAGE gels running continuously at 90 V.[13],[14] Wet slab-gels were scanned on fluorescence using a Typhoon Variable Mode Imager (Amersham Biosciences) using λEX 488 nm and λEM 520 nm (band pass filter 40 nm) for green fluorescent JJB256 1 and λEX 532 nm and λEM 610 nM (band pass filter 30 nm) for red fluorescent JJB244 2 and JJB75.

CC1=CC(C)=[N+]2C1=C(CCCCc1cn(CCCCCCCC(=O)N3[C@@H]4[C@@H](C)[C@@H](O)[C@@H](O)[C@H](O)[C@@H]43)nn1)c1c(C)cc(C)n1[B-]2(F)F [compound 1]
IC50 [1]: 6.9 ± 0.8 nM
labeling of enzyme [2]: efficiently labels
